The results in this text go back to ChEMBL document CHEMBL4422639, “Novel 2, 8-bit derivatives of quinolines attenuate Pseudomonas aeruginosa virulence and biofilm formation” (Bioorg Med Chem Lett, 2019).

Series [1] deals with Pseudomonas aeruginosa. In words: Antibiofilm activity against Pseudomonas aeruginosa PAO1 at 10 uM after 18 hrs by crystal violet staining-based assay. It is filed as functional, organism-based.
The subject of series [2] is Pseudomonas aeruginosa. The experiment in a line: Antibacterial activity against Pseudomonas aeruginosa PAO1 by standard optical density assay. Format: functional, organism-based.
Series [3] relates to Pseudomonas aeruginosa PAO1. In words: Inhibition of PQS in Pseudomonas aeruginosa PAO1 assessed as decrease in pyocyanin production at 10 uM after 16 hrs by standard optical density assay.
Series [4] addresses 3-(3-hydroxydecanoyloxy)decanoate synthase (Pseudomonas aeruginosa (strain ATCC 15692 / PAO1 / 1C / PRS 101 / LMG12228)) (UniProt Q51559). The experiment in a line: Inhibition of rhlA in Pseudomonas aeruginosa PAO1 assessed as decrease in rhamnolipid production at 10 uM after 16 hrs by standard optical density assay.
Series [5] has as its target T1, Anthranilate--CoA ligase (Pseudomonas aeruginosa (strain ATCC 15692 / DSM 22644 / CIP 104116 /JCM 14847 / LMG 12228 / 1C / PRS 101 / PAO1)) (UniProt Q9I4X3).
T1 sequence (whole entry): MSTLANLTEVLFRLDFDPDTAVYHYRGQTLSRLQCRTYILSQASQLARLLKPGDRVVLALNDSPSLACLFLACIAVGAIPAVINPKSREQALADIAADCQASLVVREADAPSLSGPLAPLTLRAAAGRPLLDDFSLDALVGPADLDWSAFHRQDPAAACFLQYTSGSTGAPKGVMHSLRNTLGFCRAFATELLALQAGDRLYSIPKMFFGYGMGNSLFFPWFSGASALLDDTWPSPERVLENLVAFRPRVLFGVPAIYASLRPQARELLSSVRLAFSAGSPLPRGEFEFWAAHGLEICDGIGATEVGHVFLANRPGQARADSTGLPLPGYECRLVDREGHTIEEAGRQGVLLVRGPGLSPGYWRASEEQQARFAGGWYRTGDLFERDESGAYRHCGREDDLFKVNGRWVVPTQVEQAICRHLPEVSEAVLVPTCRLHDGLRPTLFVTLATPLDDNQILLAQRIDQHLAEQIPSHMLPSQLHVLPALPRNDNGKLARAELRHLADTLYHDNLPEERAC
The experiment in a line: Inhibition of pqsA in Pseudomonas aeruginosa PAO1 containing […] translational reporter fusion at 20 uM after 16 hrs by LacZ reporter gene assay.

The test system of series [6] is Pseudomonas aeruginosa PAO1. In words: Inhibition of quorum sensing protein iqs in Pseudomonas aeruginosa PAO1 in phosphate limited medium assessed as reduction in biofilm formation at 10 uM after 18 hrs by crystal violet staining-based assay.
The target in series [7] is 3-(3-hydroxydecanoyloxy)decanoate synthase (Pseudomonas aeruginosa (strain ATCC 15692 / PAO1 / 1C / PRS 101 / LMG12228)) (UniProt Q51559). The experiment in a line: Inhibition of rhlA in Pseudomonas aeruginosa PAO1 containing […] translational reporter fusion at 20 uM after 16 hrs by LacZ reporter gene assay.
Series [8] addresses Elastase (Pseudomonas aeruginosa (strain ATCC 15692 / PAO1 / 1C / PRS 101 / LMG12228)) (UniProt P14756). The experiment in a line: Inhibition of lasB in Pseudomonas aeruginosa PAO1 containing lasB-lacZ translational reporter fusion at 20 uM after 16 hrs by LacZ reporter gene assay.

Molecules are shown by their SMILES. Active and inactive are the calls of the source. The calls are words filed in the database; no cut-off is given here. A value given as a limit tells only on which side of the number the result lay.

Chain of Elastase (Pseudomonas aeruginosa (strain ATCC 15692 / PAO1 / 1C / PRS 101 / LMG12228)) (P14756 198-498 limits assumed): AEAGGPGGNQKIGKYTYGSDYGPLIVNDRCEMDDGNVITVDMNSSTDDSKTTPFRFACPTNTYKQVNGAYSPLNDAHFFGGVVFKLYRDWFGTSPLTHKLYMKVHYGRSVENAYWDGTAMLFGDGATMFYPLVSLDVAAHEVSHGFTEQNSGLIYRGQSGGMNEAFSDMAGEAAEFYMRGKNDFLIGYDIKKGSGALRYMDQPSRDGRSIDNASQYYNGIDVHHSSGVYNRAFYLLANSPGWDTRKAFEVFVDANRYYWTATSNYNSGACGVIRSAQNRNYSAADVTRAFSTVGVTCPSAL

For the molecule `O=C(Oc1cccc2ccc(-c3cccc(C(F)(F)F)c3)nc12)c1ccccc1`, the result with Pseudomonas aeruginosa [1] was Active. The same molecule had an MIC in the series with Pseudomonas aeruginosa [2] above 256 µM.
`O=C(Oc1cccc2ccc(-c3cccc(C(F)(F)F)c3)nc12)c1ccc(Cl)cc1`: in the series on Pseudomonas aeruginosa [1], the result was Active. The MIC in the series with Pseudomonas aeruginosa [2] was above 256 µM.
Take `CCCCCCC(=O)Oc1cccc2ccc(-c3ccc(C(F)(F)F)cc3)nc12`: the inhibition result in series [3], in series [5], in series [6] and in series [8] was “inactive” throughout. Also, the inhibition result in series [4] and in series [7] was “Active” in each case. Also, the outcome with Pseudomonas aeruginosa [1] was Active. The MIC with Pseudomonas aeruginosa [2] was above 256 µM.
In the case of `CCCC(=O)Oc1cccc2ccc(-c3ccc(C(F)(F)F)cc3)nc12`, in the series on Pseudomonas aeruginosa [1], the outcome was Active. In the series on Pseudomonas aeruginosa [2], the MIC is above 256 µM.
Turning to `Cc1ccc(C(=O)Oc2cccc3ccc(-c4cccc(C(F)(F)F)c4)nc23)cc1`, the outcome in the series on Pseudomonas aeruginosa [1] was Active. The molecule further registered an MIC against Pseudomonas aeruginosa [2] above 256 µM.
For `O=C(Oc1cccc2ccc(-c3ccc(C(F)(F)F)cc3)nc12)c1ccco1`, the result in the series with Pseudomonas aeruginosa [1] was Active. In the series with Pseudomonas aeruginosa [2], this molecule registered an MIC above 256 µM.
Turning to `CCC(=O)Oc1cccc2ccc(-c3ccc(C(F)(F)F)cc3)nc12`, in the series with Pseudomonas aeruginosa [1], the outcome was Active. The molecule further came in with an MIC against Pseudomonas aeruginosa [2] above 256 µM.
As to `CCCCCCC(=O)Oc1cccc2ccc(-c3cccc(C(F)(F)F)c3)nc12`, the result in the series on Pseudomonas aeruginosa [1] was Active. Moreover, in the series with Pseudomonas aeruginosa [2], the MIC is above 256 µM.
The corresponding values for `CCCCCC(=O)Oc1cccc2ccc(-c3cccc(C(F)(F)F)c3)nc12` are “Active” and above 256 µM.
As for `COc1ccc(C(=O)Oc2cccc3ccc(-c4ccc(C(F)(F)F)cc4)nc23)cc1`, the result in the series with Pseudomonas aeruginosa [1] was Active. For the same molecule, the MIC in the series with Pseudomonas aeruginosa [2] is above 256 µM.
In the case of `CCCCCC(=O)Oc1cccc2ccc(-c3ccc(C(F)(F)F)cc3)nc12`, the outcome with Pseudomonas aeruginosa [1] was Active. The molecule further registered an MIC in the series with Pseudomonas aeruginosa [2] above 256 µM.
`CCCCCCC(=O)Oc1cccc2ccc(-c3cc(C(F)(F)F)cc(C(F)(F)F)c3)nc12` displayed an MIC against Pseudomonas aeruginosa [2] above 256 µM.
Regarding `CC(=O)Oc1cccc2ccc(-c3ccc(C(F)(F)F)cc3)nc12`, the result with Pseudomonas aeruginosa [1] was Active. In the series with Pseudomonas aeruginosa [2], this molecule came in with an MIC above 256 µM.
With `Oc1cccc2ccc(-c3ccc(C(F)(F)F)cc3)nc12`, the outcome with Pseudomonas aeruginosa [1] was Active. The MIC against Pseudomonas aeruginosa [2] is above 256 µM.
Consider `COc1ccc(C(=O)Oc2cccc3ccc(-c4cccc(C(F)(F)F)c4)nc23)cc1`, for which the inhibition result in series [3], in series [5], in series [6] and in series [8] was “inactive” in each case. Moreover, the inhibition result in series [4] and in series [7] was “Active” throughout. In addition, the result in the series on Pseudomonas aeruginosa [1] was Active. Besides, the MIC in the series on Pseudomonas aeruginosa [2] is above 256 µM.
Consider `Cc1ccc(C(=O)Oc2cccc3ccc(-c4ccc(C(F)(F)F)cc4)nc23)cc1`, for which the result in the series on Pseudomonas aeruginosa [1] was Active. Further, the MIC against Pseudomonas aeruginosa [2] was above 256 µM.
For `O=C(Oc1cccc2ccc(-c3cccc(C(F)(F)F)c3)nc12)c1ccco1`, the result with Pseudomonas aeruginosa [1] was Active. The molecule further gave an MIC in the series with Pseudomonas aeruginosa [2] above 256 µM.
In the case of `O=C(Oc1cccc2ccc(-c3ccc(C(F)(F)F)cc3)nc12)c1ccccc1`, in the series with Pseudomonas aeruginosa [1], the outcome was Active. Further, the MIC in the series on Pseudomonas aeruginosa [2] is above 256 µM.
The corresponding values for `CCCCC(=O)Oc1cccc2ccc(-c3ccc(C(F)(F)F)cc3)nc12` are “Active” and above 256 µM.
Turning to `O=C(Oc1cccc2ccc(-c3ccc(C(F)(F)F)cc3)nc12)c1ccc(Cl)cc1`, in the series on Pseudomonas aeruginosa [1], the outcome was Active. This molecule displayed an MIC in the series on Pseudomonas aeruginosa [2] above 256 µM.
Take `CCCCCCC(=O)Oc1cccc2ccc(-c3ccc(F)cc3)nc12`: the MIC with Pseudomonas aeruginosa [2] is above 256 µM.
